In patent US20060069132A1, “Azolecarboxamide herbicides” (priority 2004, published 2006):
Like-named read-outs stand apart in the source and are kept apart here.

Experiments:
[1] = test system: rice; assay: Test C flooded paddy test; format: in vivo, Oryza sativa; settings: for Plant response rating, Rice: 500 g ai/ha, visual rating after 12 to 14 days
Procedure, shortened: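 Injury scored visually against controls on a 0 (no effect) to 100 (complete control) scale, 12 to 14 days after treatment in greenhouse. Flooded paddy plants treated at 2-leaf stage; postemergence plants at 1- to 4-leaf stage, 2 to 18 cm tall.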

[2] = test system: large crabgrass; assay: Test A pre-/postemergence herbicide test; format: in vivo, Digitaria sanguinalis
Procedure, shortened: (§1)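 Sandy loam soil given preemergence directed spray; plants at 2 to 10 cm, one- to two-leaf stage, sprayed to runoff postemergence, compounds in non-phytotoxic solvent with surfactant. Injury rated visually versus untreated controls after about ten greenhouse days, 0 (no effect) to 100 (complete control); dash means not tested.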

[3] = test system: redroot pigweed; assay: Test A pre-/postemergence herbicide test; format: in vivo, Amaranthus retroflexus
Procedure, shortened: as §1

[4] = test system: blackgrass; assay: Test B postemergence herbicide test; format: in vivo, Alopecurus myosuroides; settings: for pest or weed control at 125 g/ha / pest or weed control at 500 g/ha: Alopecurus myosuroides, post-emergence, 336 h, read-out: Blackgrass plant response rating
Procedure, shortened: (§2)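 Read-out: visual comparison with controls, scored 0 to 100, where 100 means complete control and 0 no effect. Formulated chemicals were applied postemergence to plants 2–18 cm tall (1- to 4-leaf), or to flooded-paddy plants at the 2-leaf stage, then held 13 to 15 days under glass.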

[5] = test system: barnyardgrass; assay: Test A pre-/postemergence herbicide test; format: in vivo, Echinochloa crus-galli
Procedure, shortened: as §1

[6] = test system: small flower umbrella sedge; assay: Test B flooded paddy test; format: in vivo, Cyperus difformis; settings: 1000 g ai/ha, scale 0 to 100 (0 no effect, 100 complete control); for pest or weed control at 1000 g/ha: Cyperus difformis, 336 h, read-out: Sedge, Umbrella plant response rating
Procedure, shortened: as §2

[7] = 125 g ai/ha, scale 0 to 100 (0 no effect, 100 complete control)
[8] = 250 g ai/ha, scale of 0 to 100, 0 is no effect, 100 is complete control
[9] = scale 0 to 100 (0 no effect, 100 complete control)
[10] = Postemergence, 500 g ai/ha, 0 to 100 scale, 0 no effect, 100 complete control
[11] = Postemergence, 2000 g ai/ha, 0 to 100 scale, 0 no effect, 100 complete control
[12] = Preemergence, 2000 g ai/ha, visual rating, 0 to 100 scale (0 no effect, 100 complete control)
[13] = preemergence, 500 g ai/ha, visual injury, 0 to 100 scale (0 no effect, 100 complete control)
[14] = postemergence, 125 g ai/ha, visual rating, scale 0 (no effect) to 100 (complete control)
[15] = postemergence, 500 g ai/ha, scale 0 to 100, 0 is no effect, 100 is complete control
[16] = 62 g ai/ha, scale 0 to 100 (0 no effect, 100 complete control)
[17] = Preemergence, 500 g ai/ha, visual rating, 0 to 100 scale (0 no effect, 100 complete control)
[18] = postemergence, 500 g ai/ha, visual rating, scale 0 (no effect) to 100 (complete control)
[19] = Postemergence, 500 g ai/ha, scale 0 (no effect) to 100 (complete control)
[20] = postemergence, 125 g ai/ha, scale 0 to 100

Row | SMILES | Rice plant response rating ([1]; 62 g ai/ha, scale 0 to 100) | Rice plant response rating [1, 7] | Rice plant response rating [1, 8] | Plant response rating, Rice [1, 9] | Crabgrass, Large plant response rating [2, 10] | Plant response rating, Crabgrass, Large [2, 11] | Crabgrass, Large plant response rating [2, 12] | Crabgrass, Large plant response rating [2, 13] | Pigweed plant response rating [3, 10] | Plant response rating, Pigweed [3, 11] | Pigweed plant response rating [3, 12] | Pigweed plant response rating [3, 13] | Blackgrass plant response rating [4, 14] | Barnyardgrass plant response rating [5, 10] | Plant response rating, Barnyardgrass [5, 11] | Barnyardgrass plant response rating [5, 12] | Barnyardgrass plant response rating [5, 13] | Sedge, Umbrella plant response rating [6] | Rice plant response rating [1, 16] | Blackgrass plant response rating [4, 18] | also measured
1 | C#CCNC(=O)c1cc(NC(=O)c2cc(C(C)(C)C)nn2CC)ccn1 [Compound 283] | 0 | 0 | 0 | 0 | 10 | 10 | 90 | 15 | 80 | 100 | 90 | 60 | 20 | 10 | 35 | 30 | 0 | 80 | – | – | Blackgrass plant response rating [4, 15]: 40
2 | CCOc1cccc(NC(=O)c2cc(C(C)(C)C)nn2CC)c1 [Compound 136] | – | 35 | 50 | 70 | 35 | 70 | 90 | – | 65 | 85 | 80 | 70 | 30 | 55 | 60 | 85 | – | – | 30 | 60 | Crabgrass, Large plant response rating [2, 17]: 85; Barnyardgrass plant response rating [5, 17]: 65; Sedge, Umbrella plant response rating ([6]; visual rating, 13 to 15 days): 90
3 | CCn1nc(C(C)(C)C)cc1C(=O)Nc1cccc(OCCCF)c1 [Compound 138] | – | 5 | 5 | 40 | 20 | 30 | 90 | – | 60 | 100 | 95 | 80 | 0 | 15 | 30 | 80 | – | – | 5 | 20 | Crabgrass, Large plant response rating [2, 17]: 70; Barnyardgrass plant response rating [5, 17]: 30; Sedge, Umbrella plant response rating ([6]; visual rating, 13 to 15 days): 80
4 | CCn1nc(C(C)(C)C)cc1C(=O)Nc1cc(C(=O)NCC2CC2)ccn1 [Compound 155] | – | 0 | 0 | 35 | – | – | – | – | – | – | – | – | 40 | – | – | – | – | – | 0 | 50 | Sedge, Umbrella plant response rating ([6]; visual rating, 13 to 15 days): 90
5 | CCN(C(C)=O)C(=O)c1ccc(F)c(NC(=O)c2cc(C(C)(C)C)nn2CC)c1 [Compound 413] | 35 | 45 | 55 | 70 | 10 | 15 | 70 | 40 | 60 | 85 | 60 | 45 | – | 20 | 50 | 75 | 60 | 90 | – | – | Blackgrass plant response rating [4, 19]: 20; Blackgrass plant response rating [4, 20]: 10
6 | CCn1nc(C(C)(C)C)cc1C(=O)Nc1nc(C(=O)N2CC=CC2)ccc1F [Compound 281] | 0 | 0 | 15 | 50 | 5 | 10 | 65 | 20 | 70 | 70 | 95 | 90 | 20 | 30 | 65 | 75 | 60 | 70 | – | – | Blackgrass plant response rating [4, 15]: 30
7 | CCOC(=O)c1cccc(NC(=O)c2nn(C(C)(C)C)nc2CC)c1 [Compound 360, ethyl 3-[[[2-(1,1-dimethylethyl)-5-ethyl-2H-1,2,3-triazol-4-yl]carbonyl]amino]benzoate] | – | – | – | – | – | – | – | – | – | – | – | – | – | – | – | – | – | – | – | – | pest or weed control at 125 g/ha ([4]; 125 g ai/ha, visual rating, scale 0 (no effect) to 100 (complete control)): 30%; pest or weed control at 500 g/ha [4, 15]: 50%; pest or weed control at 1000 g/ha [6]: 90%
8 | CCN(CC)C(=O)c1cncc(NC(=O)c2cc(C(C)(C)C)nn2CC)c1 [Compound 261, 5-[[[3-(1,1-dimethylethyl)-1-ethyl-1H-pyrazol-5-yl]carbonyl]amino]-N,N-diethyl-3-pyridinecarboxamide] | – | – | – | – | – | – | – | – | – | – | – | – | – | – | – | – | – | – | – | – | pest or weed control at 125 g/ha [4, 14]: 0%; pest or weed control at 500 g/ha [4, 18]: 20%; pest or weed control at 1000 g/ha [6]: 30%
9 | CCn1nc(C(C)(C)C)cc1C(=O)Nc1cccc(OS(=O)(=O)CC)c1 [Compound 408] | 25 | 35 | 45 | 55 | – | – | – | – | – | – | – | – | – | – | – | – | – | 90 | – | – | Blackgrass plant response rating [4, 19]: 80; Blackgrass plant response rating [4, 20]: 40
